Experimental data from patent publication US10189820.

Settings: amide bond; 22-membered ring; HATU/DIEA; NMP; 68.9 mM; 140.0 °C; 2 steps

8-ethyl-10,18,30-trimethyl-7,20-dioxo-7,8,11,12,13,14,15,20,21,28,29,30,31,32-tetradecahydro-benzo[4,5]imidazo[2,1-b]benzo[4,5]imidazo[1,2-i]dipyrazolo[5,1-m:4′,3′-t][1,3,6,9,11,14]hexaazacyclodocosine-3,24-dicarboxamide
ring closure, yield after HPLC: 4.56%
